Source: ChEMBL document CHEMBL3994622, “Design and synthesis of new RAF kinase-inhibiting antiproliferative quinoline derivatives. Part 2: Diarylurea derivatives” (Eur J Med Chem, 2017)

Tests used:
COLO 205 = experiment: Growth inhibition of human COLO205 cells assessed as cell growth at 0.005 uM incubated for 48 hrs by sulforhodamine B assay relative to control; type: functional; settings: COLO 205, 48 h, read-out: Activity
SW-620 = experiment: Growth inhibition of human SW620 cells assessed as cell growth at 0.005 uM incubated for 48 hrs by sulforhodamine B assay relative to control; type: functional; settings: SW-620, 48 h, read-out: Activity
M14 = experiment: Growth inhibition of human M14 cells assessed as cell growth at 0.005 uM incubated for 48 hrs by sulforhodamine B assay relative to control; type: functional; settings: M14, 48 h, read-out: Activity
SK-MEL-28 = experiment: Growth inhibition of human SK-MEL-28 cells assessed as cell growth at 0.005 uM incubated for 48 hrs by sulforhodamine B assay relative to control; type: functional; settings: SK-MEL-28, 48 h, read-out: Activity
A498 = experiment: Growth inhibition of human A498 cells assessed as cell growth at 0.005 uM incubated for 48 hrs by sulforhodamine B assay relative to control; type: functional; settings: A498, 48 h, read-out: Activity
K562 [1] = experiment: Growth inhibition of human K562 cells assessed as cell growth at 0.5 uM incubated for 48 hrs by sulforhodamine B assay relative to control; type: functional; settings: K562, 48 h, read-out: Activity
K562 [2] = experiment: Growth inhibition of human K562 cells assessed as cell growth at 0.05 uM incubated for 48 hrs by sulforhodamine B assay relative to control; type: functional; settings: K562, 48 h, read-out: Activity
SR = experiment: Growth inhibition of human SR cells assessed as cell growth at 0.05 uM incubated for 48 hrs by sulforhodamine B assay relative to control; type: functional; settings: read-out: Activity
NCI-H226 = experiment: Growth inhibition of human NCI-H226 cells assessed as cell growth at 0.05 uM incubated for 48 hrs by sulforhodamine B assay relative to control; type: functional; settings: NCI-H226, 48 h, read-out: Activity
HCC 2998 = experiment: Growth inhibition of human HCC2998 cells assessed as cell growth at 0.05 uM incubated for 48 hrs by sulforhodamine B assay relative to control; type: functional; settings: HCC 2998, 48 h, read-out: Activity
HCT-116 = experiment: Growth inhibition of human HCT116 cells assessed as cell growth at 0.05 uM incubated for 48 hrs by sulforhodamine B assay relative to control; type: functional; settings: HCT-116, 48 h, read-out: Activity
U-251 [3] = experiment: Growth inhibition of human U251 cells assessed as cell growth at 0.05 uM incubated for 48 hrs by sulforhodamine B assay relative to control; type: functional; settings: U-251, 48 h, read-out: Activity
LOX IMVI = experiment: Growth inhibition of human LOXIMVI cells assessed as cell growth at 0.05 uM incubated for 48 hrs by sulforhodamine B assay relative to control; type: functional; settings: read-out: Activity
OVCAR-3 = experiment: Growth inhibition of human OVCAR3 cells assessed as cell growth at 0.05 uM incubated for 48 hrs by sulforhodamine B assay relative to control; type: functional; settings: OVCAR-3, 48 h, read-out: Activity
OVCAR-5 = experiment: Growth inhibition of human OVCAR5 cells assessed as cell growth at 0.05 uM incubated for 48 hrs by sulforhodamine B assay relative to control; type: functional; settings: OVCAR-5, 48 h, read-out: Activity
SK-OV-3 [4] = experiment: Growth inhibition of human SKOV3 cells assessed as cell growth at 0.05 uM incubated for 48 hrs by sulforhodamine B assay relative to control; type: functional; settings: SK-OV-3, 48 h, read-out: Activity
HCT-15 = experiment: Growth inhibition of human HCT15 cells assessed as cell growth at 0.5 uM incubated for 48 hrs by sulforhodamine B assay relative to control; type: functional; settings: HCT-15, 48 h, read-out: Activity
OVCAR-4 = experiment: Growth inhibition of human OVCAR4 cells assessed as cell growth at 0.5 uM incubated for 48 hrs by sulforhodamine B assay relative to control; type: functional; settings: OVCAR-4, 48 h, read-out: Activity
A549 [5] = experiment: Growth inhibition of human A549/ATCC cells assessed as cell growth at 5 uM incubated for 48 hrs by sulforhodamine B assay relative to control; type: functional; settings: A549, 48 h, read-out: Activity
HOP-62 = experiment: Growth inhibition of human HOP62 cells assessed as cell growth at 5 uM incubated for 48 hrs by sulforhodamine B assay relative to control; type: functional; settings: HOP-62, 48 h, read-out: Activity
HOP-92 = experiment: Growth inhibition of human HOP92 cells assessed as cell growth at 5 uM incubated for 48 hrs by sulforhodamine B assay relative to control; type: functional; settings: HOP-92, 48 h, read-out: Activity
NCI-H522 = experiment: Growth inhibition of human NCI-H522 cells assessed as cell growth at 5 uM incubated for 48 hrs by sulforhodamine B assay relative to control; type: functional; settings: NCI-H522, 48 h, read-out: Activity
U-251 [6] = experiment: Growth inhibition of human U251 cells assessed as cell growth at 5 uM incubated for 48 hrs by sulforhodamine B assay relative to control; type: functional; settings: U-251, 48 h, read-out: Activity
DU-145 = experiment: Growth inhibition of human DU145 cells assessed as cell growth at 5 uM incubated for 48 hrs by sulforhodamine B assay relative to control; type: functional; settings: DU-145, 48 h, read-out: Activity
A549 [7] = experiment: Growth inhibition of human A549/ATCC cells assessed as cell growth at 50 uM incubated for 48 hrs by sulforhodamine B assay relative to control; type: functional; settings: A549, 48 h, read-out: Activity
SK-MEL-5 = experiment: Growth inhibition of human SK-MEL-5 cells assessed as cell growth at 50 uM incubated for 48 hrs by sulforhodamine B assay relative to control; type: functional; settings: SK-MEL-5, 48 h, read-out: Activity
SK-OV-3 [8] = experiment: Growth inhibition of human SKOV3 cells assessed as cell growth at 50 uM incubated for 48 hrs by sulforhodamine B assay relative to control; type: functional; settings: SK-OV-3, 48 h, read-out: Activity
ACHN = experiment: Growth inhibition of human ACHN cells assessed as cell growth at 50 uM incubated for 48 hrs by sulforhodamine B assay relative to control; type: functional; settings: read-out: Activity
RXF 393 = experiment: Growth inhibition of human RXF393 cells assessed as cell growth at 50 uM incubated for 48 hrs by sulforhodamine B assay relative to control; type: functional; settings: RXF 393, 48 h, read-out: Activity
MDA-MB-231 = experiment: Growth inhibition of human MDA-MB-231 cells assessed as cell growth at 50 uM incubated for 48 hrs by sulforhodamine B assay relative to control; type: functional; settings: MDA-MB-231, 48 h, read-out: Activity
[9] = molecular target: RAC-alpha serine/threonine-protein kinase (Homo sapiens) (UniProt P31749); experiment: Inhibition of human AKT1 at 10 uM using KGSGSGRPRTSSFAEG as substrate in presence of [33P]ATP by Hotspot assay relative to control
[10] = test system: Serine/threonine-protein kinase B-raf (Homo sapiens), P15056 [V600E]; experiment: Inhibition of human BRAF V600E mutant at 10 uM using MEK1 as substrate in presence of [33P]ATP by Hotspot assay relative to control
NCI-H460 = experiment: Growth inhibition of human NCI-H460 cells assessed as cell growth at 10 uM incubated for 48 hrs by sulforhodamine B assay relative to control; type: functional; settings: NCI-H460, 48 h, read-out: Activity

Serine/threonine-protein kinase B-raf (Homo sapiens), P15056 [V600E], sequence (P15056 whole entry V600E): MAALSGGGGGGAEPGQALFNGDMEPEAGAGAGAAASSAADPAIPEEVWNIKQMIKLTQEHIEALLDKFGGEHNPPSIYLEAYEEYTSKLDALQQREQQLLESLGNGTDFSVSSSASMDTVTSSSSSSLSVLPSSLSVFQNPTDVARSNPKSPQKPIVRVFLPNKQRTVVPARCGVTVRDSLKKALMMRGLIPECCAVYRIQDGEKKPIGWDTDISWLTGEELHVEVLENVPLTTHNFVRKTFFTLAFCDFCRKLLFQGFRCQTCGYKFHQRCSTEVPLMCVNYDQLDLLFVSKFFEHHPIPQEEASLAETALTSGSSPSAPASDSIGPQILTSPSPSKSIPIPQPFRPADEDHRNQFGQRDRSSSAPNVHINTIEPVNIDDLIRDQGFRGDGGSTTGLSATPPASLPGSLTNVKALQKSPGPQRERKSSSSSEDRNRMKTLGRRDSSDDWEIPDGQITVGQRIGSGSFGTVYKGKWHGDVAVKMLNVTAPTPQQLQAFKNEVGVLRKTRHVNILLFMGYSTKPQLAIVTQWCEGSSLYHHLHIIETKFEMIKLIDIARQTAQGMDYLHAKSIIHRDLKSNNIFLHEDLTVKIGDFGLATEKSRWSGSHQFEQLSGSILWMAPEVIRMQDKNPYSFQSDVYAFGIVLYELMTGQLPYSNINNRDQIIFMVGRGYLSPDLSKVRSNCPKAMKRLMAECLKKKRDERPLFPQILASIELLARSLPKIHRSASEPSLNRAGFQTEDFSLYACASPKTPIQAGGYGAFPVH
RAC-alpha serine/threonine-protein kinase (Homo sapiens), sequence (P31749 whole entry): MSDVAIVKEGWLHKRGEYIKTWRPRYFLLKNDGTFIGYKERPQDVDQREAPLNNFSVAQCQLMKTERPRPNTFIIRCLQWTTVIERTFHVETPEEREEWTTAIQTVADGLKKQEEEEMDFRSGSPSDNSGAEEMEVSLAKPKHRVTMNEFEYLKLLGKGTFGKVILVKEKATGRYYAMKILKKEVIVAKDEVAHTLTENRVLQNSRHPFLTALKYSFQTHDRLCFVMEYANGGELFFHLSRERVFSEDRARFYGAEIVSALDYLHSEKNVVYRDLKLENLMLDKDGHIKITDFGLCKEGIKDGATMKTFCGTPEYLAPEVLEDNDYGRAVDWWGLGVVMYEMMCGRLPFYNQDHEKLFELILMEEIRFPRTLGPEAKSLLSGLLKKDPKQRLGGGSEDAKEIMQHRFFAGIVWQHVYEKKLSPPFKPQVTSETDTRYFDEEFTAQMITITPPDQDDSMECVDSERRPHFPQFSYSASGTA

COc1cc2cc(Oc3ccc(NC(=O)Nc4cccc(C(F)(F)F)c4)cc3)c(C)nc2cc1OC
growth at 0.005 µM (COLO 205): 97%
growth at 0.005 µM (SW-620): 99%
growth at 0.005 µM (M14): 98%
growth at 0.005 µM (SK-MEL-28): 101%
growth at 0.005 µM (A498): 113%
growth at 0.5 µM (K562 [1]): 93%
growth at 0.05 µM (K562 [2]): 99%
growth at 0.05 µM (SR): 93%
growth at 0.05 µM (NCI-H226): 104%
growth at 0.05 µM (HCC 2998): 105%
growth at 0.05 µM (HCT-116): 93%
growth at 0.05 µM (U-251 [3]): 99%
growth at 0.05 µM (LOX IMVI): 96%
growth at 0.05 µM (OVCAR-3): 101%
growth at 0.05 µM (OVCAR-5): 103%
growth at 0.05 µM (SK-OV-3 [4]): 95%
growth at 0.5 µM (HCT-15): 92%
growth at 0.5 µM (OVCAR-4): 99%
growth at 5 µM (A549 [5]): 9%
growth at 5 µM (HOP-62): 25%
growth at 5 µM (HOP-92): -10%
growth at 5 µM (NCI-H522): -4%
growth at 5 µM (U-251 [6]): 5%
growth at 5 µM (DU-145): 32%
growth at 50 µM (A549 [7]): -72%
growth at 50 µM (SK-MEL-5): -100%
growth at 50 µM (SK-OV-3 [8]): -37%
growth at 50 µM (ACHN): -34%
growth at 50 µM (RXF 393): -69%
growth at 50 µM (MDA-MB-231): -82%

COc1cc2cc(Oc3ccc(NC(=O)Nc4ccc(Cl)c(C(F)(F)F)c4)cc3)c(C)nc2cc1OC
inhibition [9]: 0.06%
inhibition [10]: 88.9%

COc1cc2cc(Oc3ccc(NC(=O)Nc4cc(C(F)(F)F)cc(C(F)(F)F)c4)cc3)c(C)nc2cc1OC
growth at 10 µM (NCI-H460): -64%
